{"source": "ChEMBL document CHEMBL4715754", "about": "“Slowing down fat digestion and absorption by an oxadiazolone inhibitor targeting selectively gastric lipolysis” (2016)", "key": {"[1]": {"biological_target": "T1, Pancreatic triacylglycerol lipase (Sus scrofa) (UniProt P00591)", "T1 sequence (whole entry)": "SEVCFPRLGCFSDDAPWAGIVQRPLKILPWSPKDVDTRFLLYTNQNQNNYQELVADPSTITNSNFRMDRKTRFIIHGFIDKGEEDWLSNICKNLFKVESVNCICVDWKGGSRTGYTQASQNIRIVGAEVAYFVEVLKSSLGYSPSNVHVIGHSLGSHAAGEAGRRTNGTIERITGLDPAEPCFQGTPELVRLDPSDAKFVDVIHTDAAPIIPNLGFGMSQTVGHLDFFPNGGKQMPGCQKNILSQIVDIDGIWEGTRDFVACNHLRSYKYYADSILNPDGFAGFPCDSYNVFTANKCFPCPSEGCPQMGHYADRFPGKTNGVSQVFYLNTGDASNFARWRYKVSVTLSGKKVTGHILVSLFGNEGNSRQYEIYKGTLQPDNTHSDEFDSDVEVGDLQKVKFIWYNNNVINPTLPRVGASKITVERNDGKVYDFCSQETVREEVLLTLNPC", "experiment": "Inhibition of porcine pancreatic lipase assessed as lipolysis level at 4.1 mg/ml under duodenal phase at pH 6.5 using solid test meal measured at 90 mins (reference value: 45.4 +/- 1.4 %)", "design": "scale not given: the % may be the effect or the level left"}, "[2]": {"biological_target": "T2, Pancreatic lipase-related protein 2 (Cavia porcellus) (UniProt P81139)", "T2 sequence (whole entry)": "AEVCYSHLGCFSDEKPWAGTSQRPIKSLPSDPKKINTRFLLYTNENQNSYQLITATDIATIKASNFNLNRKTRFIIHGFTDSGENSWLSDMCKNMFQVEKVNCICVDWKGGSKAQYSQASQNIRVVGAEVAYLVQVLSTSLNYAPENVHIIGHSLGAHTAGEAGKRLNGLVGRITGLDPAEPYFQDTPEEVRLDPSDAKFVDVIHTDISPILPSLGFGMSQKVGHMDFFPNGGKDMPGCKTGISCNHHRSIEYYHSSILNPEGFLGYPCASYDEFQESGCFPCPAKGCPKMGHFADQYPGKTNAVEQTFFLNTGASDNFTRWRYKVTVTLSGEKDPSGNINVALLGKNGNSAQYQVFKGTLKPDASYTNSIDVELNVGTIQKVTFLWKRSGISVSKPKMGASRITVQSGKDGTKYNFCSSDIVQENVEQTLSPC", "experiment": "Inhibition of recombinant guinea pig PL-RP2 expressed in Aspergillus oryzae at 20:1 molar excess compound concentration preincubated for 30 mins at 25 degreeC relative to control"}}}
{"smiles": "O=c1oc(OCCOCc2ccccc2)nn1-c1cccc(Oc2ccccc2)c1", "values": [{"measurement": "Activity", "setting": "[1]", "result": 33.7, "unit": "%"}, {"measurement": "inhibition", "setting": "[2]", "result": 62.1, "unit": "%"}]}
